Tests used:
[1] = tested on: rat femoral model of postmenopausal osteoporosis; experiment: In vivo microCT static and dynamic histomorphometry around femoral screws in ovariectomized rats
Experimental: The in vivo study in a rat femoral model of postmenopausal osteoporosis was performed following a well-established protocol. All animal procedures were approved by the local animal care and use committee (license no. 2508.1, EXPANIM, SCAV, Epalinges, Switzerland).
Eight virgin female Wistar rats (Janvier Labs, Saint-Berthevin, France) were ovariectomized bilaterally with a dorsal approach at an age of 17 weeks and a weight of 295±18 g to induce an estrogen deficiency related bone loss. The rats were housed 4 per cage under 12 h light to 12 h dark cycles at 22° C. room temperature with 55% humidity. They were fed with a standard rodent diet (KLIBA NAFAG 3436, Provimi Kliba AG, Switzerland) and tab water at libitum. […]
In vivo microCT scans (Skyscan 1076, Bruker microCT, Kontich, Belgium) of the right femur only were performed one day before OVX and one day before screw implantation in order to confirm the bone loss caused by the estrogen deficiency. […] The image taken for the evaluation of the bone loss and for dynamic histomorphometry were processed and analyzed using the softwares Amira® (FEI Vizualisation Sciences Group, Burlington, USA) and CTan (Bruker microCT, Kontich, Belgium). […] For an analysis of the spatio-temporal effect, the static and dynamic bone parameters were analyzed in 4 layers of 368 μm each around the screw. […]

[2] = tested on: RAW 264.7 murine macrophages; experiment: Cell proliferation assay with RAW 264.7 macrophages (CellTiter 96 AQueous One Solution); assay type: cell-based; details: Zoledronate concentrations from 0.16 to 40 μM
Experimental: An aqueous Zoledronate solution with a concentration of 2 mg/ml was prepared and sterile filtered. The drug solution was diluted with CCM to a final concentration of 80 μM of Zoledronate. A further dilution with CCM gave Zoledronate supplemented medium (Zol-CCM) with concentrations of 80 μM, 40 μM, 20 μM, 10 μM, 5 μM, 2.5 μM and 1.25 μM. The dilution procedure was repeated with an aqueous dispersion containing 2 mg/ml Zoledronate and 20 mg/ml nHA (nHA-Zol-CCM). The macrophages were seeded with a density of 2500 cell per well in 96-well plates (Microtest™ 96, Becton Dickinson Labware, NJ, USA) and incubated with 100 μl CCM at standard incubation conditions (37° C., 5% CO2). After 24 h of incubation, 100 μl of CCM, Zol-CCM or nHA-Zol-CCM were added to the cells, the final Zoledronate concentrations in the CCM were therefore 40 μM, 20 μM, 10 μM, 5 μM, 2.5 μM, 1.25 μM and 0.625 μM. A cell proliferation assay (CellTiter 96® AQueous One Solution, Promega, Wis., USA) was performed after 24, 48 and 72 hours of cell exposure to the modified CCM. The absorbance was measured with a plate reader (Wallac 1420 Victor 2, Perkin Elmer, Waltham, Mass., USA). Background plates with only the modified media were measured at all time points to avoid a bias due to the nHA particles in the dispersions.

peri-implant bone = details: Zoledronate locally delivered from a hyaluronic acid hydrogel; cited from earlier work

In the case of `O=P(O)(O)C(O)(Cn1ccnc1)P(=O)(O)O` [Zoledronate], the bone resorption/demineralization peak ([1]; between days 10 and 31, locally delivered) is reported as “completely inhibited”, the “resorption of bone and degradation of the biomaterial” value ([1]; later during the study) is reported as “efficiently inhibited the resorption of present and newly formed bone” and the cell proliferation [2] is reported as “dose-depended proliferation decrease”. The “increase of early bone formation rate” value (peri-implant bone) was “up to 100%” and the peri-implant bone resorption (peri-implant bone) was “efficiently inhibiting peri-implant bone resorption”.

Reference: patent publication US20170056559A1, “Active Agent-Particle Combination Supporting Bone Regeneration” (ECOLE POLYTECHNIQUE FEDERALE DE LAUSANNE (EPFL), priority 2014, published 2017)
